# Test results taken from ChEMBL document CHEMBL1201862, “PubChem BioAssay data set” (2004).
# The source made the active and inactive calls.
# Assays:
# [1] = microbe, parasite or virus in culture; assay type: functional; conditions: Mycobacterium tuberculosis
# [2] = target: T1, Replicative DNA helicase DnaB (Mycobacterium tuberculosis, UniProt P9WMR3); test: DnaB intein splicing inhibitors, dose response, biochemical, cell-free fluorescence (AID 449749); assay type: functional
# T1 sequence (P9WMR3 whole entry): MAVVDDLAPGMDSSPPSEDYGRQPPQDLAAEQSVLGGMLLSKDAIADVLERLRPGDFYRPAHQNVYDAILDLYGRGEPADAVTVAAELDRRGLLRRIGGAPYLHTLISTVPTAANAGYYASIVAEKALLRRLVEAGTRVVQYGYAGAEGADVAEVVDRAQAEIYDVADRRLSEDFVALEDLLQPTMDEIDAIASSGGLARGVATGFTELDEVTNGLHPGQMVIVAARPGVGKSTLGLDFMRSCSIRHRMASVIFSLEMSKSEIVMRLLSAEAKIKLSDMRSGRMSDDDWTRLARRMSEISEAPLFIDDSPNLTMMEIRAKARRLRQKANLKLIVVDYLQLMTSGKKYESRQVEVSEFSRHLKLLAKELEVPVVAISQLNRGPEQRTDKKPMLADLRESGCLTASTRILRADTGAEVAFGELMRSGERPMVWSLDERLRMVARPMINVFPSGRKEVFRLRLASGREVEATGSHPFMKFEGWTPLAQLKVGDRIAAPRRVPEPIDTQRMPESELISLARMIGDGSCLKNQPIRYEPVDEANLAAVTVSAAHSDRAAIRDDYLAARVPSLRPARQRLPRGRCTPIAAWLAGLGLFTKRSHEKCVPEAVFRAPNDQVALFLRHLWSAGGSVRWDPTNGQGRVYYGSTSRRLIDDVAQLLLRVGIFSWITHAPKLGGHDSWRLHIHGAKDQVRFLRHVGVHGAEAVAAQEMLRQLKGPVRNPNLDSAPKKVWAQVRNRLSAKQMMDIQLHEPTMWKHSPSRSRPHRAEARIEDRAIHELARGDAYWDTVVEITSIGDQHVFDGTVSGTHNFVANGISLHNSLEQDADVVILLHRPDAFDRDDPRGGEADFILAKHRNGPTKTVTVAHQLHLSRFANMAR
# Protein RecA = target: T2, Protein RecA (Mycobacterium tuberculosis, UniProt P9WHJ3); test: Fluorescence Cell-Free Homogeneous Dose Retest to Identify Inhibitors of RecA-Intein Splicing Activity. [Related pubchem assays (depositor defined):AID2097, AID2223, AID489010, AID492950]; assay type: functional
# T2 sequence (P9WHJ3 whole entry): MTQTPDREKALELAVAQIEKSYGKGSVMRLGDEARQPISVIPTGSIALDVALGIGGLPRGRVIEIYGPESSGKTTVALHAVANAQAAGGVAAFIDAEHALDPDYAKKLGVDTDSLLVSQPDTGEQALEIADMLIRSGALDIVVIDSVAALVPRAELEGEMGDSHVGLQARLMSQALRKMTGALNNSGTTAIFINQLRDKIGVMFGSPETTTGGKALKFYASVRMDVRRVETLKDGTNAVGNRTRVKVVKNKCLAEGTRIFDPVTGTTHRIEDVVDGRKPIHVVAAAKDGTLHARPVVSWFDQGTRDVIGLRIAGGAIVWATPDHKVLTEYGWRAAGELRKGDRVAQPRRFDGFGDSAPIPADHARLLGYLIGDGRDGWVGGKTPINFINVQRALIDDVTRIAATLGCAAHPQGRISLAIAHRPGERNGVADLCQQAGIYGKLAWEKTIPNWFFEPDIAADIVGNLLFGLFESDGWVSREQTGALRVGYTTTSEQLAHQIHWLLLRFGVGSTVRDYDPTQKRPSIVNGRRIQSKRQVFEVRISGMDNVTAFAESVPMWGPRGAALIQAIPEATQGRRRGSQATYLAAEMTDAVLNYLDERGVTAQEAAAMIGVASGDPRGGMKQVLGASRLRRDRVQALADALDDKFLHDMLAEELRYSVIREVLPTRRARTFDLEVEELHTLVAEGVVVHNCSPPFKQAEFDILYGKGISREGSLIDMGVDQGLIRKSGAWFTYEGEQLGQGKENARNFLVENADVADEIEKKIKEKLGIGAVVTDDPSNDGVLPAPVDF
# [3] = Luminescence Cell-Based Dose Confirmation HTS to Identify Activators of 5'UTR Stem-Loop Driven Alpha-Synuclein mRNA Translation in H4 Neuroglioblastoma Cells. [Related pubchem assays: 1829 (Project Summary), 1814 (Primary HTS)]; assay type: functional
# [4] = Luminescence Cell-Based Dose Response HTS to Identify Activators of Luciferase Translation or Activity in H4 […] Cells. [Related pubchem assays: 1829 (Project Summary), 1814 (Primary HTS)]; assay type: functional
# H4 = test: Luminescence Cell-Based Dose Response HTS to Identify Activators of 5'UTR Stem-Loop Driven Prion Protein mRNA Translation in H4 Neuroglioblastoma Cells. [Related pubchem assays: 1829 (Project Summary), 1814 (Primary HTS)]; assay type: functional; conditions: Homo sapiens
# [5] = target: T3, Corticotropin-releasing factor receptor 2/Corticotropin-releasing factor-binding protein (Homo sapiens, UniProt P24387+Q13324); test: Dose Response confirmation of uHTS hits for small molecule antagonists of the CRF-binding protein and CRF-R2 receptor complex.; assay type: functional; conditions: read-out: IC50_Mean
# T3 sequence (Q13324 whole entry): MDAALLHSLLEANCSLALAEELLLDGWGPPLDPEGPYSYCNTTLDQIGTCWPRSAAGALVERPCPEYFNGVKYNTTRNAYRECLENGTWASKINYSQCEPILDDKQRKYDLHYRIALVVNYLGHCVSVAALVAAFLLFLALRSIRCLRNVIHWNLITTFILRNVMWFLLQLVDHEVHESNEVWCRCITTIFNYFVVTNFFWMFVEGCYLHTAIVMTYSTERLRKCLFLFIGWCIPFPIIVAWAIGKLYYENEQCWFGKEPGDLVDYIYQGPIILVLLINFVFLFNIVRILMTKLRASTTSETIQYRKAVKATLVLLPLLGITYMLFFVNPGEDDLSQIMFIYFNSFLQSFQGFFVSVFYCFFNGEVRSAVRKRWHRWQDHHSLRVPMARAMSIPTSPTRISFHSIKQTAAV
# T3 sequence (P24387 whole entry): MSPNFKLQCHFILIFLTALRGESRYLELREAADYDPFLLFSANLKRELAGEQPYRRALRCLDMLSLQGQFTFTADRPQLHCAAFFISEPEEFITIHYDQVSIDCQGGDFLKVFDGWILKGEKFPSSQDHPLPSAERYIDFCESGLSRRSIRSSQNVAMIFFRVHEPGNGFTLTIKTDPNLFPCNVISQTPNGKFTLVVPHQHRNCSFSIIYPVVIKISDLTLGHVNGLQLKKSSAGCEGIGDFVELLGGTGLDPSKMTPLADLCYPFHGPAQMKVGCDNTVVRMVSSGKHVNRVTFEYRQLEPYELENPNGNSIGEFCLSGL
# [6] = target: T3, Corticotropin-releasing factor receptor 2/Corticotropin-releasing factor-binding protein; test: activators of CRF receptor 2 with binding protein – uHTS hits, confirmation (AID 602473); assay type: functional; conditions: read-out: EC50_Mean
# BJ [7] = test: BJ-TERT fibroblast viability loss – cell-based, RAS-independent, luminescence, dose response (AID 1933); assay type: functional; conditions: Homo sapiens
# BJ [8] = test: cells; assay type: functional, cell-based; conditions: Homo sapiens
# BJ [9] = test: BJ-TERT-LT-ST fibroblast viability loss – cell-based, RAS-independent, luminescence, dose response (AID 1935); assay type: functional; conditions: Homo sapiens;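 also: BJ fibroblasts immortalized with TERT plus LT and ST oncogenes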
# [10] = DRD fibroblast viability loss – cell-based, non-viral oncogenic, luminescence, dose response (AID 1934); assay type: functional; conditions: Homo sapiens
# [11] = target: T4, Polyadenylate-binding protein 1 (Homo sapiens, UniProt P11940); test: MLLE binding blockers, Cy5 peptide tracer – biochemical, fluorescence polarization, Cy5-PAM2 peptide, secondary, miRNA deadenylation inhibitor project, dose response (AID 602260); assay type: functional; conditions: read-out: IC50_Mean
# [12] = target: T4, Polyadenylate-binding protein 1; test: MLLE domain peptide-binding blockers, IC50 – biochemical, fluorescence polarization, FITC-PAM2 peptide, dose response (AID 602259); assay type: functional; conditions: read-out: IC50_Mean
# Cytochrome P450 2C19 = Cytochrome P450 2C19 (Homo sapiens, UniProt P33261); test: Cytochrome panel assay with activity outcomes. Panel member name: p450-cyp2c19 Compounds with AC50 equal or less than 10 uM are considered active; assay type: functional; conditions: read-out: AC50
# [13] = P. falciparum Dd2 growth inhibitors, dose response, SYBR Green, cherry-picked samples (AID 1159567); assay type: functional, cell-based
# [14] = NIH-3T3 fibroblast cytotoxicity, dose response, cytotoxicity control, cell-based, fluorescence, Alamar Blue, secondary assay (AID 2327); assay type: functional;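 also: NIH-3T3 mouse fibroblasts cultured with fluconazole at 8 µg/mL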
# [15] = system: Streptococcus sp. 'group A'; test: Streptococcus pyogenes SK(-)GAS viability under kanamycin – luminescence, BacTiterGlo, confirmation, counter-screen for streptokinase expression inhibitor project, dose response (AID 1900); assay type: functional, organism-based
# Streptokinase A = target: T5, Streptokinase A (Streptococcus pyogenes serotype M1, UniProt P10520); test: viability-normalized secreted streptokinase activity reduction – plasminogen activation absorbance, OD405, dose response (AID 1914); assay type: functional, Streptococcus pyogenes M1 GAS;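 also: secreted streptokinase activity via plasminogen activation per viability signal from cell pellet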
# T5 sequence (P10520 whole entry): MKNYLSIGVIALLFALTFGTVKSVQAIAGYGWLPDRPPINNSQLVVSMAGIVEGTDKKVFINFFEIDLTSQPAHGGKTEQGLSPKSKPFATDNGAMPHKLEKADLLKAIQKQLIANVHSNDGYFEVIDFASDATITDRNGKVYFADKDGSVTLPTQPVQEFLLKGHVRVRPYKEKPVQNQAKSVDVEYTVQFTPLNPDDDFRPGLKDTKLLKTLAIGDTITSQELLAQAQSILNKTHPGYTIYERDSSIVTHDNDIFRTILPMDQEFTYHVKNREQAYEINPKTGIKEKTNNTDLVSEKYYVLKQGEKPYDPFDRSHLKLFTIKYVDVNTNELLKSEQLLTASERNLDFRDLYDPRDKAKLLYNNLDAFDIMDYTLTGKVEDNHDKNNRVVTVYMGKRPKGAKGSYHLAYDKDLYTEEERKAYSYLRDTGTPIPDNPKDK
# [16] = fluconazole-exposed Candida albicans growth modulators – fluorescence, retest, confirmation (AID 2467); assay type: functional, cell-based
# [17] = Trypanosoma cruzi growth suppression in host cells – NIH3T3 host cells, beta-gal luminescence, confirmation (AID 2044); assay type: functional, cell-based;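 also: intracellular parasites grown in NIH/3T3 mouse fibroblasts as host cells; luminescent beta-galactosidase reporter signal from transgenic T. cruzi replicating inside host cells; inhibitors lower the luminescence signal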
# [18] = NIH3T3 cell viability loss – ATP luminescence, mouse fibroblasts, counter-screen, dose response (AID 2010); assay type: functional, cell-based;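 also: cells exposed to compound for about 90 hours before reading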
# Streptococcus = test: GAS UMAA2166 growth inhibition – luminescence, BacTiterGlo, counter-screen for streptokinase expression inhibitor project, dose response (AID 1915); assay type: functional, organism-based;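 also: potency for reduction of bacterial viability or growth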
# T4 sequence (P11940 whole entry, the tested form may be a part): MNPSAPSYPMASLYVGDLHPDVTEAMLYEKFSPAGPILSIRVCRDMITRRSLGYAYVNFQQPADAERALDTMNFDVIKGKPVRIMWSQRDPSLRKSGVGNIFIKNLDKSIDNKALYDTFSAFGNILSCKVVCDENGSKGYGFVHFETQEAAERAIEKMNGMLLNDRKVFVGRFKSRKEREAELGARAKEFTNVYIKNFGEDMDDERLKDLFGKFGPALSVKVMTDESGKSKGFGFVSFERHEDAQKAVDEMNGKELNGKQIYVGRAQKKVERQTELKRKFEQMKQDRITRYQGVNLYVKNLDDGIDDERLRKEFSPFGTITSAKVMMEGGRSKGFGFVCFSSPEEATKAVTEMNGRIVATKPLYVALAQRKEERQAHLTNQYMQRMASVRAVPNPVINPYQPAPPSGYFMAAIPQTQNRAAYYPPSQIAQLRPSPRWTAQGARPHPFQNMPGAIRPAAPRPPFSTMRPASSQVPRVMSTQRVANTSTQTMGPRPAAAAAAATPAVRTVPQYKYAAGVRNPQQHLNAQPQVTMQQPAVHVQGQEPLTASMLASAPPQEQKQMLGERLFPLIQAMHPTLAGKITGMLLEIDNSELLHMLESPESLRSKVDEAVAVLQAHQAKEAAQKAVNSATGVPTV
# Sequence of Cytochrome P450 2C19 (P33261 whole entry): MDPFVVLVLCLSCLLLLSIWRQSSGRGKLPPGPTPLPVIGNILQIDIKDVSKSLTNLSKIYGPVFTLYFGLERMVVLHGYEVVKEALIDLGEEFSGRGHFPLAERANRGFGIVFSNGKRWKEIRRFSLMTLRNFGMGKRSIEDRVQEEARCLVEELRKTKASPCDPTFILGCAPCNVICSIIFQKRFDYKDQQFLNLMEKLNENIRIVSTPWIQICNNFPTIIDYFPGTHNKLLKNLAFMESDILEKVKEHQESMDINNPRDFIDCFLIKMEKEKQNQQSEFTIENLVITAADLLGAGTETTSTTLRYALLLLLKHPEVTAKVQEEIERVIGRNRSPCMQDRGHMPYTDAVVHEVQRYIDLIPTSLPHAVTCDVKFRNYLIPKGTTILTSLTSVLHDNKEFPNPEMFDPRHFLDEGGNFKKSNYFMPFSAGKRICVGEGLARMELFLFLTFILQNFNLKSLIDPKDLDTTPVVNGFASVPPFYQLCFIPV
Compound,CC50 [1],EC50 [3],EC50 [4],EC50 (H4),also measured
O=C(Nc1ccc(Cl)cc1)N1CCN(c2ccc3nnc(-c4ccc(F)cc4)n3n2)CC1,19.3 µM (active),,,,
CCOC(=O)c1c(CC(C)C)csc1NC(=O)CCl,> 40 µM (active),,,,AC50 [2]: 9.8 µM (active); EC50 (Protein RecA): 2.39 µM (active)
Cc1ccc(C(=O)c2nc3c(n2O)CCCC3)cc1,,> 120 µM (not active),> 120 µM (not active),25.7 µM (active),
Clc1ccc(SCc2cn3ccsc3n2)cc1,,89.9 µM (active),21 µM (active),> 120 µM (not active),
CCOc1ccc(-c2nc(C)c(C(C)=O)n2O)cc1,,14.1 µM (active),9.13 µM (active),8.13 µM (active),
Cc1c(-c2ccc(Cl)cc2)[n+]([O-])c(-c2ccccc2)c[n+]1[O-],,> 120 µM (not active),> 120 µM (not active),> 120 µM (not active),IC50 [5]: > 47.1 µM (inactive); EC50 [6]: > 53 µM (inactive)
Cc1ccc(/C=C2\SC(=S)N(CCC(=O)N3CCCCC3)C2=O)cc1,,,,,EC50 (BJ [7]): > 150 µM (not active); EC50 (BJ [8]): > 150 µM (inconclusive); EC50 (BJ [9]): > 150 µM (not active); EC50 [10]: > 150 µM (not active)
COc1cccc(NC(=S)N/N=C2/CCCCc3ccccc32)c1,,7.09 µM (active),8.02 µM (active),33.6 µM (active),IC50 [11]: > 66 µM (inactive); IC50 [12]: > 66 µM (inactive)
COc1ccc(-c2nn(-c3ccccc3)cc2/C=N/NC(=O)c2ccc3c(c2)OCO3)cc1,,18.3 µM (active),12.2 µM (active),18.5 µM (active),AC50 (Cytochrome P450 2C19): 2.24 µM (inconclusive)
COc1cccc(Nc2ccc([N+](=O)[O-])c3nonc23)c1,> 40 µM (active),,,,
OCC(O)/C=N/Nc1nc(Nc2ccccc2)nc(Nc2ccccc2)n1 (stereo not given),> 40 µM (active),,,,
C/C(=N\NC(=O)CN1CCCCC1)c1cccc([N+](=O)[O-])c1,,13.6 µM (active),9.5 µM (active),26.9 µM (active),
CCC(=O)N1CCC2(CC1)CN(Cc1ccc(Cl)cc1)[C@@H](CO)c1[nH]c3cc(OC)ccc3c12,,,,,AC50 [13]: 3.79 µM (active)
COc1cc2[nH]c3c(N4CCN(c5ccccn5)CC4)ncnc3c2cc1OC,11.1 µM (active),,,,
COc1ccc(C2(c3ccc(OC)cc3)NC(=O)N(CC(=O)Nc3ccc(OC(F)F)cc3)C2=O)cc1,36.2 µM (active),,,,
COc1ccc(-c2cc(C3CCN(Cc4cccc(C(F)(F)F)c4)CC3)[nH]n2)cc1,35.5 µM (active),,,,EC50 [14]: > 160 µM (inactive); EC50 [15]: 25.1 µM (active); EC50 (Streptokinase A): > 150 µM (not active); EC50 [16]: > 38 µM (not active); EC50 [17]: 626 nM (active); EC50 [18]: > 60 µM (not active); EC50 (Streptococcus): > 150 µM (not active)
O=C(/C=C/c1ccc(O)c([N+](=O)[O-])c1)c1ccc2ccccc2c1,> 40 µM (active),16.6 µM (active),14.5 µM (active),17.9 µM (active),
CC(Oc1ccc2c(c1)c1ccnc3c4ccccc4c(=O)n2c13)C(=O)NCCN1CCOCC1 (stereo not given),,19.6 µM (active),12.5 µM (active),> 120 µM (not active),
CN1c2ccc(-c3cccc(F)c3)cc2[C@@H]2[C@@H](CCN2C(=O)C2CC2)[C@@H]1CO,,,,,AC50 [13]: 16.8 µM (active)
